Data set [1] concerns MMPs produced by synovial tissue in response to IL-1β. To be noted: for activity of the MMPs, % of that measured in tissues not exposed to the regulator: IL-1β alone = 100%.
The test system of data set [2] is cells in the synovial tissue. In words: Trypan blue exclusion test on synovial tissue. Particulars: Examples 1-4. The protocol: Multiple samples of synovial tissue, each approximately 20 mg, were obtained from a person with osteoarthritis (grade IV, Kellgren-Lawrence scale).
The mark [3] stands for this setting: Example 1, person, regulator 0.01 mg/mL.
The mark [4] stands for this setting: Example 1, person, regulator 0.05 mg/mL.
Where [5] appears, read: Example 2, person, regulator 0.01 mg/mL.
Setting [6] is: Example 2, person, regulator 0.05 mg/mL.
[7] abbreviates: Example 3, person, regulator 0.01 mg/mL.
The mark [8] stands for this setting: Example 3, person, regulator 0.05 mg/mL.
[9] abbreviates: Example 4, person, regulator 0.01 mg/mL.
The mark [10] stands for this setting: Example 4, person, regulator 0.05 mg/mL.
Setting [11] is: Example 5, person, single regulator 0.1 mg/mL.
Where [12] appears, read: Example 6, person, single regulator 0.1 mg/mL.
[13] abbreviates: Example 7, person, single regulator 0.1 mg/mL.

Results on two molecules are retold here after patent US20120309709A1, “Ion-Channel Regulator Compositions and Methods of Using Same” (priority 2007, published 2012).

Values joined by “and” are separate entries in the source; they are usually repeats but may differ in a detail not shown here. Identical values can stand only once. Like-named read-outs stand apart in the source and are kept apart here.

As to `COc1ccc([C@@H]2Sc3ccccc3N(CCN(C)C)C(=O)[C@@H]2OC(C)=O)cc1` [diltiazem], the “activity of the MMPs, % of that measured in tissues not exposed to the regulator” value stood at 97% in data set [1] (setting [3]); 27.1% in data set [1] (setting [4]); 99% in data set [1] (setting [5]); 35.7% in data set [1] (setting [6]); 97% in data set [1] (setting [7]); 24.7% in data set [1] (setting [8]). The “activity of the MMPs, % of that measured in tissues not exposed to the regulator” value in data set [1] (setting [9]) stood at 98.1%; in data set [1] (setting [10]), 22.6%; in data set [1] (setting [11]), 24.8%; in data set [1] (setting [12]), 29.8%; in data set [1] (setting [13]), 34.3%. Further, the “effect on blocking MMP activity of further increasing the concentration” value in data set [1] (Examples 1-4, concentration increased from 0.05 mg/mL up to 0.1 mg/mL, compared with level at 0.05 mg/mL) was “no further effect”. The “concentration at which death of cells in the synovial tissue was observed” value in data set [2] is listed as “above 0.1 mg/mL”.

With `COc1ccc(CCN(C)CCCC(C#N)(c2ccc(OC)c(OC)c2)C(C)C)cc1OC` (stereo not shown) [verapamil], the “activity of the MMPs, % of that measured in tissues not exposed to the regulator” value was found to be 38% in data set [1] (setting [3]); 18.9% in data set [1] (setting [4]); 37.2% in data set [1] (setting [5]); 21.5% in data set [1] (setting [6]); 37% in data set [1] (setting [7]); 23.2% in data set [1] (setting [8]). Moreover, the “activity of the MMPs, % of that measured in tissues not exposed to the regulator” value was 35% in data set [1] (setting [9]); 13.6% and 13.1% in data set [1] (setting [10]); 16% in data set [1] (setting [11]); 21.9% in data set [1] (setting [12]); 17.4% in data set [1] (setting [13]). Further, the “concentration at which death of cells in the synovial tissue was observed” value in data set [2] is “above 0.1 mg/mL”.
